pIC50: −log10 of the molar value.
Experiments:
[1] = biological target: GST-CBP(1081-1197) bromodomain (Homo sapiens (Human), UniProt Q92793); experiment: CBP AlphaScreen Assay; conditions: binding to biotin-H4(1-21) Ac-K5/8/12/16
Summary of the method: (§1)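 AlphaScreen binding of GST-bromodomain to biotin-H4(1-21) Ac-K5/8/12/16: 5 nM CBP with 20 nM peptide, or 2.5 nM BRD4 with 10 nM peptide, in 50 mM HEPES 7.5, […], 1 mM TCEP, 0.003% Tween-20. Compound preincubated 30 min, then beads 2 h, room temperature. IC50 from variable-slope fit.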

[2] = biological target: BRD4(49-170) bromodomain (Homo sapiens (Human), UniProt O60885); experiment: BRD4 AlphaScreen Assay; conditions: binding to biotin-H4(1-21) Ac-K5/8/12/16
Summary of the method: as §1

Chain of GST-CBP(1081-1197) bromodomain (Q92793 1081-1197): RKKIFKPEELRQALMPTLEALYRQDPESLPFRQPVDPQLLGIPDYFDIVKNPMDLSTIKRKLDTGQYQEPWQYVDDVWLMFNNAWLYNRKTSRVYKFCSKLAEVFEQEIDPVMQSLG

pIC50 [1]	pIC50 [2]	Structure (SMILES)
6.29	4.60	C[C@H]1C(=O)N(C)Cc2c(-c3cccc4cc(-c5cnn(C)c5)ncc34)nc(C3CC3)n21 [Example 111a, (S)-3-cyclopropyl-5,7-dimethyl-1-(3-(1-methyl-1H-pyrazol-4-yl)isoquinolin-8-yl)-7,8-dihydroimidazo[1,5-a] pyrazin-6(5H)-one]
9.00	7.05	C[C@@H]1C(=O)N(C)Cc2c(-c3cccc4cc(-c5cnn(C)c5)ncc34)nc(C3CC3)n21 [Example 111b, (R)-3-cyclopropyl-5,7-dimethyl-1-(3-(1-methyl-1H-pyrazol-4-yl)isoquinolin-8-yl)-7,8-dihydroimidazo[1,5-a] pyrazin-6(5H)-one]

— patent US10899769B2, “Imidazopiperazinone inhibitors of transcription activating proteins” (Board of Regents, The University of Texas System, priority 2018, dated 2021)
